# In patent publication US6833372B2, “Non-peptide GnRH agents, Pharmaceutical compositions, and methods for their use” (Pfizer, Inc., priority 2002, dated 2004):
# Where two headings read alike, the source gives them in different places.
# What was measured:
# [1] = Solubility at pH2 and pH6; type: physicochemical
# [2] = In vitro metabolism: disappearance of parent compound in rat liver microsomes (male, female); type: in vitro ADME; conditions: 5 uM compound, 30 minutes 37° C.; for Fem. Rat (FR) % rem. 30′: female rat liver microsomes; for Male Rat (MR) % rem. 30′: male rat liver microsomes
# In short: (§1)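 Microsomes from human, rat (male, female), dog and monkey liver incubated with 5 uM compound, 0.5 mg/ml protein and 2 mM NADPH in 50 mM K phosphate, pH 7.4, for 30 min at 37° C. Reaction stopped with acetonitrile; parent compound remaining measured by LC-MS.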
# [3] = In vitro metabolism: disappearance of parent compound in monkey liver microsomes; type: in vitro ADME; conditions: 5 uM compound, 30 minutes 37° C.
# In short: as §1
# rat GnRH receptor = molecular target: T1, rat GnRH receptor (Rattus norvegicus, UniProt P30969); experiment: Radioligand binding: inhibition of 125I-GnRH-A binding to rat GnRH receptor (rat pituitary membranes); conditions: read-out: Ki (nM), Inhibition Binding of 125I-GnRH-A to GnRH Receptors
# T1 construct: or rat pituitaries (Pel Freez Biologicals, Rogers, Ark.) were homogenized; tissue Pel Freez Biologicals; host or cells: rat pituitaries (membrane preparation)
# T1 sequence (P30969 1-327): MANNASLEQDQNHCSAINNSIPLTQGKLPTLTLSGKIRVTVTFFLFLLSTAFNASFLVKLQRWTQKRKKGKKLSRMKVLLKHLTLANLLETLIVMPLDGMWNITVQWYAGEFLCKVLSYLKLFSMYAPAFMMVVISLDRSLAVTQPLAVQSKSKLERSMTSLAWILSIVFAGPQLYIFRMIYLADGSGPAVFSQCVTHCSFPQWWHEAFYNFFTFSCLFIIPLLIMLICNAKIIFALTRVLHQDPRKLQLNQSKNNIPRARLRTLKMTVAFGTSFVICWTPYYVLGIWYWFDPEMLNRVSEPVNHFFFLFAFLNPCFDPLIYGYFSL
# In short: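 Membranes from rat pituitaries, or HEK 293 cells stably expressing mouse or human receptor, incubated 1 hour at room temperature with ~0.04-0.06 nM radioligand (HEPES pH 7.4, EDTA, MgCl2, BSA) and competitor at 0.1-10,000 nM. Bound ligand collected by GF/C filtration and counted; Ki derived from IC50 by Cheng-Prusoff.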
# [4] = In vitro metabolism: disappearance of parent compound in dog liver microsomes; type: in vitro ADME; conditions: 5 uM compound, 30 minutes 37° C.
# In short: as §1
# mouse GnRH receptors = molecular target: T2, mouse GnRH receptors (Mus musculus, UniProt Q01776); experiment: Radioligand binding: inhibition of 125I-GnRH-A binding to mouse GnRH receptor membranes; conditions: HEK 293 cell membranes
# T2 construct: expressed in transfected cells; host or cells: HEK 293 cells, stably transfected; membranes
# T2 sequence (Q01776 1-327): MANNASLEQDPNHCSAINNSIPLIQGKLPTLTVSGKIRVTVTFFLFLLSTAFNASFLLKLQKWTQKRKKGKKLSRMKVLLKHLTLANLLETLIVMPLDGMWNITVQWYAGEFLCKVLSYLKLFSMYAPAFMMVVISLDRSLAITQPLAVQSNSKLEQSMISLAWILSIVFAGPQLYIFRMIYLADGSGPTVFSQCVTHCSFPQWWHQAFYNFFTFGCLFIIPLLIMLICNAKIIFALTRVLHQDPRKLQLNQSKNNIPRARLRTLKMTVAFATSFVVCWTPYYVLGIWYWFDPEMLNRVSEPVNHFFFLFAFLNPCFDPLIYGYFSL
# Method: HEK 293 cells stably transfected with mouse or human GnRH receptors as described above were grown in Dulbecco's high-glucose, modified Eagle's medium (DMEM) supplemented with 0.2% G418, 10% fetal bovine serum (FBS) and 100 U/mL penicillin/streptomycin. GH3 cells stably transfected with the rat GnRH receptor (GGH3) were provided by Dr. William Chin (Harvard Medical School, Boston, Mass.). These cells have been extensively characterized previously (Kaiser et al., 1997). The cells were grown in low glucose DMEM containing: 100U/mL penicillin/streptomycin, 0.6% G418 and 10% heat-inactivated FBS.
# HEK 293 cells containing mouse or human receptors, or rat pituitaries (Pel Freez Biologicals, Rogers, Ark.) were homogenized in buffer A containing: 50 mM Tris (pH 7.4), 0.32 M sucrose, 2 mM EGTA, 1 mM PMSF, 5 μg/ml aprotinen, 5 μg/ml Pepstatin A, and 1 μg/ml leupeptin. Homogenized cells were centrifuged at 4° C. at 20,000×g for 25 minutes, re-suspended in buffer A and re-centrifuged at 4° C. at 20,000×g for an additional 25 minutes. Total membrane protein was determined with a BCA kit (Pierce, Rockford, Ill.). Membranes were stored at −70° C. at a final membrane protein concentration of approximately 5 mg/ml.
# The radioiodinated agonist analog of GnRH, [des-Gly^10,D-Ala^6]GnRH ethylamide (^125I-GnRH-A), was used as the radioligand. […] The reaction mixture was vortexed and incubated for 1 minute at room temperature. After one minute, the mixture was vortexed and allowed to incubate for an additional minute. 2 ml of 0.5 M acetic acid/1% BSA was added to the reaction tube and the mixture was added to a C18 Sep-Pak cartridge. The cartridge was washed with subsequent washes of 5 ml H2O and 5 ml 0.5 M acetic acid and then eluted with 5×1 ml of 60% CH3CN/40% 0.5 M acetic acid. The eluate was diluted with 3× volume of HPLC buffer A (0.1% TFA in H2O) and loaded onto a C18 column. The iodinated product was eluted over 20-25 min with a gradient of 25-100% CH3CN containing 0.1% TFA. The radioactive fractions (750 μl/fraction) were collected into clean polypropylene tubes containing 100 μl of 10% BSA. Fractions were assessed for biological activity by radioligand binding. Specific activity of the radioligand was approximately 2200 Ci/mmol.
# Membranes were diluted to 0.01-0.5 mg/ml (depending upon the species of receptor) with assay buffer containing 50 mM HEPES (pH 7.4), 1 mM EDTA, 2.5 mM MgCl2, and 0.1% BSA. Membranes (diluted to utilize similar receptor numbers between assays) were incubated with approximately 0.04-0.06 nM ^125I-GnRH-A in the presence or absence of competing agents (0.1-10,000 nM) in a total volume of 200 μl in 96-well polypropylene plates for 1 hour at room temperature. Assays were stopped by rapid filtration onto 96-well GF/C filters soaked in 0.1% polyethylenimine (PEI) utilizing a Packard 96-well cell harvester. Filters were washed three times with ice-cold PBS (50 mM NaPO4, 0.9% NaCl, 2 mM MgCl2, and 0.02% NaN3, pH 7.4). 35 μl of scintillation cocktail was added to each filter well and filters were counted on a Packard Topcount. Control dose-response curves were generated to GnRH (0.1 nM-100 nM) in each competition binding experiment. Ki values were calculated from IC50 values according to Cheng et al., Biochemical Pharmacol. 22: 3099-3108, 1973. [formula]
# [5] = pH 6, aqueous buffer, pH6, read-out: Solubility μg/ml pH6
SMILES,"solubility [1, 5] [µg/mL]",Fem. Rat (FR) % rem. 30′ [2] [%],Male Rat (MR) % rem. 30′ [2] [%],Monkey % rem. [3] [%],Ki (rat GnRH receptor) [nM],Dog % rem. 30′ [4] [%],"solubility ([1]; pH 2, simulated gastric fluid, pH2, read-out: Solubility μg/ml pH2) [µg/mL]",Ki (mouse GnRH receptors) [nM]
"COc1nc(OCCO)nc(OC)c1NC(=O)c1ccc(Cc2cc3c(cc2C)C(C)(C)OC3(C)C)o1 [Example A3, 5-(1,1,3,3,6-Pentamethyl-1,3-dihydro-isobenzofuran-5-ylmethyl)-furan-2-carboxylic acid [2-(2-hydroxy-ethoxy)-4,6-dimethoxy-pyrimidin-5-yl]-amide]",> 15,75,44,7,5.4,49,,
"COc1nc(OC)c(NC(=O)c2ccc(Cc3cc4c(cc3C)C(C)(C)OC4(C)C)o2)c(OC)n1 [Example A1, 5-(1,1,3,3,6-Pentamethyl-1,3-dihydro-isobenzofuran-5-ylmethyl)-furan-2-carboxylic Acid (2,4,6-trimethoxy-pyrimidin-5-yl)-amide]",> 12,74,11,0,3.8,22,> 12,4.2
"COc1nc(N(C)C)nc(OC)c1NC(=O)c1ccc(Cc2cc3c(cc2C)C(C)(C)CCC3(C)C)o1 [Example B2, 5-(3,5,5,8,8-Pentamethyl-5,6,7,8-tetrahydro-naphthalen-2-ylmethyl)-furan-2-carboxylic Acid (dimethylamino-dimethoxy-pyrimidin-5-yl)-amide]",0.4,35,11,12,11,4,,3.4
"COc1nc(OC)c(NC(=O)c2ccc(Cc3cc4c(cc3C)C(C)(C)CCC4(C)C)o2)c(OC)n1 [Example C1, 5-(3,5,5,8,8-Pentamethyl-5,6,7,8-tetrahydro-naphthalen-2-ylmethyl)-furan-2-carboxylic Acid (2,4,6-trimethoxy-pyrimidin-5-yl)-amide]",1,72,1,0,0.7,0,,0.42
